Data reported in US11617748B2, “Meclozine derivatives and diclazuril derivatives for use in the prevention and/or the treatment of disorders associated to the inflammation induced by P. acnes” (priority 2016, dated 2023).
pIC50: −log10 of the molar value.

What was measured:
TNF-α production = TNF-α production by the monocytic cell line; format: cell-based, human; settings: data not shown
Experimental: (§1) ELISA. Human IL-1β, IL-8, hBD-2 and TNF-α protein concentration were measured in the supernatants of stimulated cells using various ELISA Sets (all from Ready-Set-Go from eBioscience, except hBD-2 measurements: Human DEFB4A/BD-2 ELISA Kit from LSBio) according to the manufacturer's instructions. We used serial dilutions of recombinant human IL-1β, IL-8, hBD-2 and TNF-α for standard curve. The optical density was determined at 450 nm at a wavelength correction of 540 nm.
Both molecules, were tested to inhibit the production of IL-1β by the monocytic cell line. ThP-1 cells were pretreated with diclazuril and meclozine, at the concentrations ranging from 0.39 to 50 μM, for 24 h and then stimulated with P. acnes suspension as described in Materials and Methods. The production of IL-1β was measured on culture supernatant by ELISA and the viability of cells was estimated by MTT assay (FIG. 2).

PKC = assay: Western blot of p-PKC/PKC in P. acnes-stimulated HaCaT cells; format: cell-based, human; settings: 25 μM, 24 h pre-treatment
Experimental: Western Blot analysis. Whole cell protein extracts (25 μg) were separated by electrophoresis (LDS-PAGE) under denaturing conditions with NuPAGE Novex 4-12% Bis-Tris gel (1 mm, 12 wells, Invitrogen, UK) and proteins were transferred onto nitrocellulose membranes and saturated in 20 ml of saturation buffer consisting of TBS 1× (Tris Buffered Saline) containing 200 mM Tris, 1.4 M NaCl (pH 7.6), 5% no fat milk, 0.1% Tween 20 for 1 h. […] After washing to remove unbound antibodies, bound primary antibodies were detected by incubation for 1 h using secondary antibody against rabbit- and mouse IgG (Santa Cruz Biotechnology, SC-2357, 1:5000 and SC-2005, 1:5000, respectively). Unbound material was removed by washing and peroxidase activity was detected in a chemiluminescence assay (WesternBright ECL, Advansta, Menlo Park, USA). […]

IL-1β production = assay: P. acnes-induced IL-1β production in ThP-1 monocytes (ELISA); format: cell-based; settings: Homo sapiens; ThP-1 cells pre-treated 24 h, then stimulated with P. acnes; read-out: IC50 of inhibition of IL-1β production
Experimental: Bacterial strain and conditions of growth. P. acnes strain 6919 was obtained from the American Type Culture Collection (Manassas, Va.) and P. acnes strains RON and PIE were isolated from patient with joint infection. All strains were grown under anaerobic conditions in reinforced clostridial liquid and solid medium (RCM) (Difco Laboratories, Detroit, Mich.). P. acnes was transferred from the bacterial stock onto RCM agar plate and incubated for 5 days under anaerobic condition by using a GasPak™ EZ Anaerobic Container System (Becton Dickinson & Co, Sparks Md., USA). A single colony was transferred into 100 ml RCM and grown as described above. Bacterial suspension was then store frozen at −80° C. in presence of 10% glycerol final. […]
as §1, with “We used serial dilutions of recombinant human IL-1β, IL-8, hBD-2 and TNF-α for standard curve.” left out
Both molecules, were tested to inhibit the production of IL-1β by the monocytic cell line. […] The production of IL-1β was measured on culture supernatant by ELISA and the viability of cells was estimated by MTT assay (FIG. 2).

SMILES | inhibition of TNF-α production (TNF-α production) | phosphorylation of PKC induced by P. acnes (PKC) | pIC50 (IL-1β production)
Cc1cccc(CN2CCN(C(c3ccccc3)c3ccc(Cl)cc3)CC2)c1 (stereo not drawn) [meclozine, Meclozine] | no effect | prevented the phosphorylation | ~5.22
N#CC(c1ccc(Cl)cc1)c1c(Cl)cc(-n2ncc(=O)[nH]c2=O)cc1Cl (stereo not drawn) [diclazuril, Diclazuril] | no effect | prevented the phosphorylation | ~5.52
